# Like-named read-outs stand apart in the source and are kept apart here.
# Experiments:
# [1] = Chronic toxicity, rat i.p. 90 days
# [2] = Acute toxicity, Kunming mice; conditions: versus netilmicin and GM
# bacteria infected mice = assay: In vivo therapeutic effect on bacteria infected mice; conditions: similar to those in vitro
# Serratia sp. = assay: In vitro antibacterial activity against 1108 strains pathogenic bacteria (Table 4); type: cell-based; conditions: 30 strains
# Staphylococcus arueus = assay: as above; type: cell-based; conditions: 190 strains
# Klebsiella pneumoniae [3] = assay: as above; type: cell-based
# Description: (§1) […]. […] […]
# Salmonella typhi = assay: as above; type: cell-based; conditions: Salmonella enterica
# Description: as §1
# Acinetobacter sp. = assay: as above; type: cell-based; conditions: 27 strains
# Description: as §1
# Enterobacter aerugenes = assay: as above; type: cell-based
# Description: as §1
# Ciltrobacter sp. = assay: as above; type: cell-based; conditions: 30 strains
# Description: as §1
# Pseudomonas sp. [4] = assay: as above; type: cell-based; conditions: 204 strains
# Description: as §1
# Proteus mirabilis = assay: as above; type: cell-based; conditions: 60 strains
# Description: as §1
# Escherichia coli [5] = assay: as above; type: cell-based
# Description: as §1
# Klebsiella pneumoniae [6] = assay: Comparison of MIC and MBC (Tables 5 and 6); type: cell-based
# Description: as §1
# S. aureus = assay: Comparison of MIC and MBC (Tables 5 and 6); type: cell-based; conditions: for MBC range: in µg/mL (unit assumed)
# Description: as §1
# Shigella = assay: Comparison of MIC and MBC (Tables 5 and 6); type: cell-based
# Description: as §1
# Pseudomonas sp. [7] = assay: Comparison of MIC and MBC (Tables 5 and 6); type: cell-based
# Description: as §1
# Escherichia coli [8] = assay: Comparison of MIC and MBC (Tables 5 and 6); type: cell-based
# Description: as §1
# [9] = Nephrotoxicity to rat after i.m. administration; conditions: gentamicin at 150 MKD and 100 MKD from seventh day
# Streptococcus faecalis = assay: In vitro antibacterial activity against 1108 strains pathogenic bacteria (Table 4); type: cell-based; conditions: Enterococcus faecalis, 33 strains
# Streptococcus viridans = assay: as above; type: cell-based; conditions: 27 strains
# Shigella dysenteriae = assay: as above; type: cell-based
# Enterobacter cloacae = assay: as above; type: cell-based; conditions: 29 strains
# [10] = tested on: Staphylococcus epidermidis; assay: as above; type: cell-based; conditions: 27 strains
# [11] = tested on: Methicillin resistant S. aureus; assay: as above; type: cell-based; conditions: Staphylococcus aureus, 53 strains
# Streptococcus pyogenes = assay: as above; type: cell-based; conditions: 27 strains
# Streptococcus pneumoniae = assay: as above; type: cell-based; conditions: 14 strains
# Haemophilus influenzae = assay: as above; type: cell-based; conditions: 8 strains
# [12] = guinea pig, in vivo
# [13] = comparison value for MCR, source not stated in block, cited from earlier work
# [14] = Enterobacter aerugenes, 27 strains
# [15] = Table 5, 20 strains, read-out: MBC50
# [16] = Table 5, 20 strains, read-out: MBC90
# [17] = Table 6, 20 strains, read-out: MBC range
# [18] = Table 6, 20 strains, unit assumed
# [19] = Table 6, 10 strains, read-out: MBC range
# [20] = Table 6, Pseudomonas sp., 20 strains, read-out: MBC range
# [21] = Table 6, 20 strains, read-out: MBC90
# [22] = Table 6, 10 strains, read-out: MBC90
# [23] = Table 6, Pseudomonas sp., 20 strains, read-out: MBC90
compound,measurement,setting,value
CCNC1CC(N)C(OC2OC(CN)CCC2N)C(O)C1OC1OCC(C)(O)C(NC)C1O (stereo not shown),"chronic toxicity, comparison with MCR",[1],not greater than that of MCR
same,"acute toxicity, comparison",[2],lower than that of netilmicin obviously and similar to that of GM
same,inhibitive and germicide activities in vivo,bacteria infected mice,high inhibitive activities and germicide activities in vivo which are similar to those in vitro
same,MIC50,Serratia sp.,0.5 mg/L
same,MIC90,Serratia sp.,32 mg/L
same,MIC range,Serratia sp.; in µg/mL (unit assumed),0.062-256
same,MIC,Serratia sp.; read-out: Mode MIC,0.5 mg/L
same,MIC50,Staphylococcus arueus,1 mg/L
same,MIC90,Staphylococcus arueus,16 mg/L
same,MIC range,Staphylococcus arueus; in µg/mL (unit assumed),0.031-128
same,MIC,Staphylococcus arueus; read-out: Mode MIC,0.062 mg/L
same,MIC50,Klebsiella pneumoniae [3],0.125 mg/L
same,MIC90,Klebsiella pneumoniae [3]; 115 strains,8 mg/L
same,MIC range,"Klebsiella pneumoniae [3]; 115 strains, in µg/mL (unit assumed)",0.062-128
same,MIC,Klebsiella pneumoniae [3]; read-out: Mode MIC,0.125 mg/L
same,MIC50,Salmonella typhi,0.5 mg/L
same,MIC90,Salmonella typhi,8 mg/L
same,MIC,Salmonella typhi; read-out: MIC range,0.062 to 32 mg/L
same,MIC,Salmonella typhi; read-out: Mode MIC,0.5 mg/L
same,MIC50,Acinetobacter sp.,0.5 mg/L
same,MIC90,Acinetobacter sp.,256 mg/L
same,MIC range,Acinetobacter sp.; in µg/mL (unit assumed),0.125-256
same,MIC,Acinetobacter sp.; read-out: Mode MIC,0.25 mg/L
same,MIC50,Enterobacter aerugenes; [14],0.25 mg/L
same,MIC90,Enterobacter aerugenes; [14],16 mg/L
same,MIC,"Enterobacter aerugenes; Enterobacter aerugenes, 27 strains, read-out: MIC range",0.062 to 32 mg/L
same,MIC,"Enterobacter aerugenes; Enterobacter, read-out: Mode MIC",0.125 mg/L
same,MIC50,Ciltrobacter sp.,0.25 mg/L
same,MIC90,Ciltrobacter sp.,16 mg/L
same,MIC range,Ciltrobacter sp.; in µg/mL (unit assumed),0.125-128
same,MIC,Ciltrobacter sp.; read-out: Mode MIC,0.25 mg/L
same,MIC50,Pseudomonas sp. [4],8 mg/L
same,MIC90,Pseudomonas sp. [4],> 256 mg/L
same,MIC,Pseudomonas sp. [4]; read-out: Mode MIC,8 mg/L
same,MIC50,Proteus mirabilis,0.5 mg/L
same,MIC90,Proteus mirabilis,2 mg/L
same,MIC range,Proteus mirabilis; in µg/mL (unit assumed),0.125-128
same,MIC,Proteus mirabilis; read-out: Mode MIC,0.5 mg/L
same,MIC50,Escherichia coli [5]; 146 strains,0.25 mg/L
same,MIC90,Escherichia coli [5]; 146 strains,16 mg/L
same,MIC,"Escherichia coli [5]; 146 strains, read-out: Mode MIC",0.25 mg/L
same,MIC,Escherichia coli [5]; read-out: MIC range,0.125 to 64 mg/L
same,MIC50,Klebsiella pneumoniae [6],0.125 mg/L
same,MIC90,Klebsiella pneumoniae [6],0.125 mg/L
same,MBC,Klebsiella pneumoniae [6]; [15],0.25 mg/L
same,MBC,Klebsiella pneumoniae [6]; [16],0.5 mg/L
same,MBC,Klebsiella pneumoniae [6]; [17],0.062 to 1 mg/L
same,MBC90,Klebsiella pneumoniae [6]; [18],0.5 mg/L
same,MBC,"S. aureus; Staphylococcus aureus, Table 5, S. aureus, 31 strains, read-out: MBC50",0.5 mg/L
same,MBC,"S. aureus; Staphylococcus aureus, Table 5, S. aureus, 31 strains, read-out: MBC90",2 mg/L
same,MIC50,"S. aureus; Staphylococcus aureus, Table 5, S. aureus, 31 strains, read-out: MIC50",0.062 mg/L
same,MIC90,"S. aureus; Staphylococcus aureus, Table 5, S. aureus, 31 strains, read-out: MIC90",0.25 mg/L
same,MBC,"S. aureus; Staphylococcus aureus, Table 6, S. aureus, 31 strains, read-out: MBC range",0.062 to 4 mg/L
same,MBC90,"S. aureus; Table 6, S. aureus, 31 strains, unit assumed",2 mg/L
same,MIC50,"Shigella; Table 5, 10 strains",0.062 mg/L
same,MBC,"Shigella; Table 5, 10 strains, read-out: MBC50",0.5 mg/L
same,MBC,"Shigella; Table 5, 10 strains, read-out: MBC90",1 mg/L
same,MIC90,"Shigella; Table 5, 10 strains, read-out: MIC90",0.125 mg/L
same,MBC,Shigella; [19],0.125 to 1 mg/L
same,MBC90,"Shigella; Table 6, 10 strains, unit assumed",1 mg/L
same,MIC50,Pseudomonas sp. [7]; Pseudomonas,1 mg/L
same,MIC90,Pseudomonas sp. [7]; Pseudomonas,4 mg/L
same,MBC,"Pseudomonas sp. [7]; Pseudomonas, read-out: MBC50",2 mg/L
same,MBC,"Pseudomonas sp. [7]; Pseudomonas, read-out: MBC90",8 mg/L
same,MBC,Pseudomonas sp. [7]; [20],0.25 to 16 mg/L
same,MBC90,"Pseudomonas sp. [7]; Table 6, Pseudomonas sp., 20 strains, unit assumed",8 mg/L
same,MIC50,Escherichia coli [8],0.125 mg/L
same,MBC,Escherichia coli [8]; [15],0.25 mg/L
same,MBC,Escherichia coli [8]; [16],1 mg/L
same,MIC90,"Escherichia coli [8]; Table 5, 20 strains, read-out: MIC90",0.5 mg/L
same,MBC90,Escherichia coli [8]; [18],1 mg/L
same,MBC,Escherichia coli [8]; read-out: MBC range,0.125 to 8 mg/L
same,dead animals,[9],no dead
same,MIC50,Streptococcus faecalis,32 mg/L
same,MIC90,Streptococcus faecalis,256 mg/L
same,MIC,Streptococcus faecalis; read-out: MIC range,0.5 to 256 mg/L
same,MIC,Streptococcus faecalis; read-out: Mode MIC,1 mg/L
same,MIC50,Streptococcus viridans,1 mg/L
same,MIC90,Streptococcus viridans,4 mg/L
same,MIC,Streptococcus viridans; read-out: MIC range,0.062 to 4 mg/L
same,MIC,Streptococcus viridans; read-out: Mode MIC,2 mg/L
same,MIC50,Shigella dysenteriae,0.25 mg/L
same,MIC90,Shigella dysenteriae,0.5 mg/L
same,MIC,Shigella dysenteriae; read-out: MIC range,0.125 to 64 mg/L
same,MIC,Shigella dysenteriae; read-out: Mode MIC,0.25 mg/L
same,MIC50,Enterobacter cloacae,2 mg/L
same,MIC90,Enterobacter cloacae,64 mg/L
same,MIC,Enterobacter cloacae; read-out: Mode MIC,0.25 mg/L
same,MIC50,[10],0.31 mg/L
same,MIC90,[10],1 mg/L
same,MIC,[10]; read-out: MIC range,0.031 to 16 mg/L
same,MIC,[10]; read-out: Mode MIC,0.031 mg/L
same,MIC50,[11],8 mg/L
same,MIC90,[11],32 mg/L
same,MIC,[11]; read-out: MIC range,0.5 to 128 mg/L
same,MIC,[11]; read-out: Mode MIC,8 mg/L
same,MIC50,Streptococcus pyogenes,1 mg/L
same,MIC90,Streptococcus pyogenes,32 mg/L
same,MIC,Streptococcus pyogenes; read-out: MIC range,0.25 to 128 mg/L
same,MIC,Streptococcus pyogenes; read-out: Mode MIC,1 mg/L
same,MIC50,Streptococcus pneumoniae,0.25 mg/L
same,MIC90,Streptococcus pneumoniae,4 mg/L
same,MIC,Streptococcus pneumoniae; read-out: MIC range,0.031 to 16 mg/L
same,MIC,Streptococcus pneumoniae; read-out: Mode MIC,0.031 mg/L
same,MIC50,Haemophilus influenzae,0.031 mg/L
same,MIC90,Haemophilus influenzae,4 mg/L
same,MIC,Haemophilus influenzae; read-out: MIC range,0.031 to 4 mg/L
same,MIC,Haemophilus influenzae; read-out: Mode MIC,0.031 mg/L
NCC[C@H](O)C(=O)N[C@@H]1C[C@H](N)[C@@H](O[C@H]2O[C@H](CN)[C@@H](O)[C@H](O)[C@H]2O)[C@H](O)[C@H]1O[C@H]1O[C@H](CO)[C@@H](O)[C@H](N)[C@H]1O [Amikacin],MBC,Klebsiella pneumoniae [6]; [21],1 mg/L
same,MBC,Klebsiella pneumoniae [6]; [17],0.125 to 2 mg/L
same,MBC,"S. aureus; Staphylococcus aureus, Table 6, S. aureus, 31 strains, read-out: MBC90",32 mg/L
same,MBC range,"S. aureus; Table 6, S. aureus, 31 strains",0.125-128
same,MBC,Shigella; [22],0.5 mg/L
same,MBC,Shigella; [19],0.25 to 1 mg/L
same,MBC,Pseudomonas sp. [7]; [23],64 mg/L
same,MBC,Pseudomonas sp. [7]; [20],1 to 64 mg/L
same,MBC,Escherichia coli [8]; [21],2 mg/L
same,MBC,Escherichia coli [8]; [17],0.25 to 8 mg/L
same,dead animals,[9],no dead
same,ABR threshold,[12],increases of ABR threshold were observed
same,auditory function,[12],nearly all the auditory function of the animals were lost
"NC[C@H]1O[C@H](O[C@H]2[C@H](O)[C@@H](O[C@H]3O[C@H](CO)[C@@H](O)[C@H](N)[C@H]3O)[C@H](N)C[C@@H]2N)[C@H](O)[C@@H](O)[C@@H]1O [Kanamicin, Kanamycin]",MBC,Klebsiella pneumoniae [6]; read-out: MBC90,4 mg/L
same,MBC,Klebsiella pneumoniae [6]; read-out: MBC range,0.25 to 4 mg/L
same,MBC,"S. aureus; Staphylococcus aureus, read-out: MBC90",64 mg/L
same,MBC range,"S. aureus; Table 6, S. aureus, 31 strains",0.125-128
same,MBC,Shigella; [22],2 mg/L
same,MBC,Shigella; [19],0.5 to 4 mg/L
same,MBC,Pseudomonas sp. [7]; [23],128 mg/L
same,MBC,Pseudomonas sp. [7]; [20],2 to 256 mg/L
same,MBC,Escherichia coli [8]; read-out: MBC90,8 mg/L
same,MBC,Escherichia coli [8]; read-out: MBC range,0.5 to 128 mg/L
"CNC[C@@H]1CC[C@@H](N)[C@@H](O[C@H]2[C@H](O)[C@@H](O[C@H]3OC[C@](C)(O)[C@H](NC)[C@H]3O)[C@H](N)C[C@@H]2N)O1 [MCR, Micronomicin]",dosage of general safety,[13]; 129600 min,25 MKD
same,dosage showing apparent intoxication,[13],63 MKD

# Source: patent US5814488A (priority 1993, dated 1998)
